According to US20260198493A1, “HYDRAZIDE COMPOUND AND AGRICULTURAL/HORTICULTURAL FUNGICIDE” (Nippon Soda Co., Ltd., priority 2022, published 2026):

What was measured:
[1] = system: Fusarium graminearum; assay: microbe, parasite or virus in culture; type: cell-based; conditions: 96 h, read-out: growth inhibition ratio
[2] = system: Botrytis cinerea; type: cell-based; conditions: 120 h, 25 ppm by volume, Vogel medium, 20° C., five days, dark, read-out: growth inhibition ratio
[3] = system: Glomerella cingulata; assay: Fungicidal effect test against fungi causing grape ripe rot disease; conditions: Colletotrichum gloeosporioides, 72 h, read-out: growth inhibition ratio
[4] = system: Venturia inaequalis; assay: Control test of apple scab disease (sprayed young apple seedlings); type: in vivo; conditions: 125 ppm by mass spray, 12 to 14 days after inoculation
[5] = system: Erysiphe graminis f.sp.tritici; assay: Control test of wheat powdery mildew disease (sprayed young wheat seedlings); type: in vivo; conditions: Blumeria graminis, 144 h, 125 ppm by mass spray, six days after inoculation
[6] = system: Botrytis cinerea; assay: Control test of cucumber gray mold (sprayed young cucumber seedlings); type: in vivo; conditions: 96 h, four days after inoculation; for pest or weed control at 25 ppm: 25 ppm by mass spray; for pest or weed control at 125 ppm: 125 ppm by mass spray
Protocol: Then, the drug liquid was sprayed onto young cucumber seedlings cultivated in a nursery pot (variety “Jihai”-based, cotyledon stage), and then air-dried. […] They were left still in a moist room at 20° C. Four days after inoculation, leaves of the young cucumber seedlings were visually observed, and the control value was calculated from the lesion area ratio in accordance with the following equation. [formula]

[7] = system: Colletotrichum acutatum; assay: Fungicidal effect test against fungi causing apple anthracnose; conditions: 96 h, read-out: growth inhibition ratio

COC(=O)N(Cc1ccc(Br)cc1C)NC(=O)c1cc(C)ncc1Oc1cccc(C2CC2)c1F [b-76]
≥ 75%: inhibition of growth at 25 ppm [1] | inhibition of growth at 25 ppm [2] | inhibition of growth at 25 ppm [3] | pest or weed control at 125 ppm [4] | pest or weed control at 125 ppm [5] | pest or weed control at 25 ppm [6] | pest or weed control at 125 ppm [6] | inhibition of growth at 25 ppm [7]

COC(=O)N(Cc1ccc(C)cc1Cl)NC(=O)c1c(C)cncc1Oc1cccc(C2CC2)c1 [b-178]
≥ 75%: inhibition of growth at 25 ppm [1] | inhibition of growth at 25 ppm [2] | inhibition of growth at 25 ppm [3] | pest or weed control at 125 ppm [4] | pest or weed control at 125 ppm [5] | pest or weed control at 25 ppm [6] | pest or weed control at 125 ppm [6] | inhibition of growth at 25 ppm [7]

COCOc1ccc(CN(NC(=O)c2cc(C)ncc2Oc2cccc(C3CC3)c2F)C(=O)OC)c(C)c1 [b-74]
≥ 75%: inhibition of growth at 25 ppm [1] | inhibition of growth at 25 ppm [2] | inhibition of growth at 25 ppm [3] | pest or weed control at 125 ppm [4] | pest or weed control at 125 ppm [5] | pest or weed control at 25 ppm [6] | pest or weed control at 125 ppm [6] | inhibition of growth at 25 ppm [7]

COC(=O)N(Cc1ccc(C)cc1C)NC(=O)c1c(Oc2cccc(C3CC3)c2F)nnc(Cl)c1C [b-15]
≥ 75%: inhibition of growth at 25 ppm [1] | inhibition of growth at 25 ppm [2] | inhibition of growth at 25 ppm [3] | pest or weed control at 125 ppm [4] | pest or weed control at 125 ppm [5] | pest or weed control at 25 ppm [6] | pest or weed control at 125 ppm [6] | inhibition of growth at 25 ppm [7]

COC(=O)N(Cc1ccc(OC)cc1C)NC(=O)c1cc(C)nnc1Oc1cccc(Cl)c1F [b-168]
≥ 75%: inhibition of growth at 25 ppm [1] | inhibition of growth at 25 ppm [2] | inhibition of growth at 25 ppm [3] | pest or weed control at 125 ppm [4] | pest or weed control at 125 ppm [5] | pest or weed control at 125 ppm [6] | inhibition of growth at 25 ppm [7]

COC(=O)N(Cc1ccc(OC)cc1C)NC(=O)c1c(Oc2cccc(C3CC3)c2F)nnc(Cl)c1C [b-106]
≥ 75%: inhibition of growth at 25 ppm [1] | inhibition of growth at 25 ppm [2] | inhibition of growth at 25 ppm [3] | pest or weed control at 125 ppm [4] | pest or weed control at 125 ppm [5] | pest or weed control at 25 ppm [6] | pest or weed control at 125 ppm [6] | inhibition of growth at 25 ppm [7]

COC(=O)N(Cc1ccc(C)cc1C)NC(=O)c1cc(Cl)nnc1Oc1cccc(Cl)c1F [b-169]
≥ 75%: inhibition of growth at 25 ppm [1] | inhibition of growth at 25 ppm [2] | inhibition of growth at 25 ppm [3] | pest or weed control at 125 ppm [4] | pest or weed control at 125 ppm [5] | pest or weed control at 125 ppm [6] | inhibition of growth at 25 ppm [7]

COC(=O)N(Cc1ccc(C)cc1C)NC(=O)c1cc(C)nnc1Oc1cccc(Br)c1F [b-38]
≥ 75%: inhibition of growth at 25 ppm [1] | inhibition of growth at 25 ppm [2] | inhibition of growth at 25 ppm [3] | pest or weed control at 125 ppm [4] | pest or weed control at 125 ppm [5] | pest or weed control at 25 ppm [6] | pest or weed control at 125 ppm [6] | inhibition of growth at 25 ppm [7]

COC(=O)N(Cc1ccc2c(c1)CCC2)NC(=O)c1cc(C)ncc1Oc1cccc(C2CC2)c1F [b-127]
≥ 75%: inhibition of growth at 25 ppm [1] | inhibition of growth at 25 ppm [2] | inhibition of growth at 25 ppm [3] | pest or weed control at 125 ppm [4] | pest or weed control at 125 ppm [5] | pest or weed control at 25 ppm [6] | pest or weed control at 125 ppm [6] | inhibition of growth at 25 ppm [7]

COC(=O)N(Cc1ccc(C)cc1C)NC(=O)c1ccncc1Oc1cccc(Br)c1 [b-145]
≥ 75%: inhibition of growth at 25 ppm [1] | inhibition of growth at 25 ppm [2] | inhibition of growth at 25 ppm [3] | pest or weed control at 125 ppm [4] | pest or weed control at 125 ppm [5] | pest or weed control at 25 ppm [6] | pest or weed control at 125 ppm [6] | inhibition of growth at 25 ppm [7]

COC(=O)N(Cc1ccc(OC)cc1C)NC(=O)c1ccncc1Oc1cccc(Br)c1 [b-146]
≥ 75%: inhibition of growth at 25 ppm [1] | inhibition of growth at 25 ppm [2] | inhibition of growth at 25 ppm [3] | pest or weed control at 125 ppm [4] | pest or weed control at 125 ppm [5] | pest or weed control at 125 ppm [6] | inhibition of growth at 25 ppm [7]

COC(=O)N(Cc1ccc(C)cc1C)NC(=O)c1nc(C)ncc1Oc1cccc(C2CC2)c1F [b-42, Methyl 2-(5-(3-cyclopropyl-2-fluorophenoxy)-2-methylpyrimidine-4-carbonyl)-1-(2,4-dimethylbenzyl)hydrazine-1-carboxylate]
≥ 75%: inhibition of growth at 25 ppm [1] | inhibition of growth at 25 ppm [2] | inhibition of growth at 25 ppm [3] | pest or weed control at 125 ppm [4] | pest or weed control at 125 ppm [5] | pest or weed control at 25 ppm [6] | pest or weed control at 125 ppm [6] | inhibition of growth at 25 ppm [7]

COC(=O)N(Cc1ccc(C)cc1C)NC(=O)c1cc(Br)ncc1Oc1cccc(C2CC2)c1F [b-67]
≥ 75%: inhibition of growth at 25 ppm [1] | inhibition of growth at 25 ppm [2] | inhibition of growth at 25 ppm [3] | pest or weed control at 125 ppm [4] | pest or weed control at 125 ppm [5] | pest or weed control at 25 ppm [6] | pest or weed control at 125 ppm [6] | inhibition of growth at 25 ppm [7]

COC(=O)N(Cc1ccc(C)cc1C)NC(=O)c1cc(C)nnc1Oc1cccc(Cl)c1F [b-23, Methyl 2-(3-(3-chloro-2-fluorophenoxy)-6-methylpyridazine-4-carbonyl)-1-(2,4-dimethylbenzyl)hydrazine-1-carboxylate]
≥ 75%: inhibition of growth at 25 ppm [1] | inhibition of growth at 25 ppm [2] | inhibition of growth at 25 ppm [3] | pest or weed control at 125 ppm [4] | pest or weed control at 125 ppm [5] | pest or weed control at 25 ppm [6] | pest or weed control at 125 ppm [6] | inhibition of growth at 25 ppm [7]
